Experimental data reported in patent publication US20100331384A1, “GUANIDINE BASED COMPOUNDS” (UNIVERSIDAD DEL PAIS VASCO/EUSKAL HERRIKO UNIBERTSITATEA, priority 2007, published 2010).

Assays:
α2-ARs [1] = molecular target: T1, α2-ARs (Homo sapiens, UniProt P08913); assay: [35S]GTPγS binding functional assay, compounds alone; format: biochemical; details: for agonistic or antagonistic properties in [35S]GTPγS experiments: human brain PFC; for stimulation of [35S]GTPγS binding by the compound on its own: human brain PFC membranes
T1 construct: other: human brain tissue in vitro; other: stimulation of [35S]GTPγS b
T1 sequence (P08913 whole entry): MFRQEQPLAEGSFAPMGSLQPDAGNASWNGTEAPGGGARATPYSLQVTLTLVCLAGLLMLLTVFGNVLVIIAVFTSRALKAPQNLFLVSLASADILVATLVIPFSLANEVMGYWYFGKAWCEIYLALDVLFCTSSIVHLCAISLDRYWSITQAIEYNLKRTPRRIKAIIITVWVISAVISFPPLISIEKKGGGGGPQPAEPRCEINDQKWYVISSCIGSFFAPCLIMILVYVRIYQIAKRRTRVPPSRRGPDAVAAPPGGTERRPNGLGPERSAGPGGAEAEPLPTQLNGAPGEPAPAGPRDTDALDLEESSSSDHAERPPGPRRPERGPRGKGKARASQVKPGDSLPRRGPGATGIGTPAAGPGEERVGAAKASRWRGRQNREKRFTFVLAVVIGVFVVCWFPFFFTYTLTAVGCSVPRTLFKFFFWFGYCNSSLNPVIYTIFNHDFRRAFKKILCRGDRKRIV
Description: The [^35S]GTPγs binding assay constitutes a functional measure of the interaction of the receptor and the G-protein and is a useful tool to distinguish between agonists (increasing the nucleotide binding), inverse agonists (decreasing the nucleotide binding), and neutral antagonists (not affecting the nucleotide binding) of GPCRs.^20 Experiments were performed in low-affinity receptor conditions for agonists (presence of guanine nucleotides and sodium in the medium), and therefore, typical potency values are two-three logarithmic units lower than affinity values obtained in radioligand receptor binding experiments.^20
(§1) Preparation of membranes. Neural membranes (P2 fractions) were prepared from the PFC of human brains obtained at autopsy in the Instituto Vasco de Medicina Legal, Bilbao, Spain. Postmortem human brain samples of each subject (˜1 g) were homogenized using a Teflon-glass grinder (10 up-and-down strokes at 1500 rpm) in 30 volumes of homogenization buffer (1 mM MgCl2, and 5 mM Tris-HCl, pH 7.4) supplemented with 0.25 M sucrose. The crude homogenate was centrifuged for 5 min at 1000×g ([…]) and the supernatant was centrifuged again for 10 min at 40000×g (4° C.). The resultant pellet was washed twice in 20 volumes of homogenization buffer and recentrifuged in similar conditions. Aliquots of 1 mg protein were stored at −70° C. until assay.
[^35S]GTPγs binding assays. The incubation buffer for measuring [^35S]GTPγs binding to brain membranes contained, in a total volume of 500 μL, 1 mM EGTA, 3 mM MgCl2, 100 mM NaCl, […], 50 mM Tris-HCl at pH 7.4 and 0.5 nM [^35S]GTPγs. Proteins aliquots were thawed and re-suspended in the same buffer. The incubation was started by addition of the membrane suspension (40 μg of membrane proteins) to the previous mixture and was performed at 30° C. for 120 min with shaking. In order to evaluate the influence of the compounds on [^35S]GTPγs binding, 8 concentrations (10^−10 to 10^−3M) of the different compounds were added to the assay. Incubations were terminated by adding 3 mL of ice-cold re-suspension buffer followed by rapid filtration through Whatman GF/C filters pre-soaked in the same buffer. The filters were rinsed twice with 3 mL of ice-cold re-suspension buffer, transferred to vials containing 5 mL of OptiPhase HiSafe II cocktail (Wallac, UK) and the radioactivity trapped was determined by liquid scintillation spectrometry (Packard 2200CA). […] Non-specific binding of the radioligand was defined as the remaining [^35S]GTPγs binding in the presence of 10 μM unlabelled GTPγs.

[2] = system: cloned human α2-AR receptor; details: disclosed in WO9846572; cited from earlier work
α2-ARs [3] = molecular target: T1, α2-ARs; assay: [3H]RX821002 competition binding assay in human brain PFC membranes; details: human brain tissue in vitro
α2-ARs [4] = molecular target: T1, α2-ARs; assay: as above; details: human brain PFC tissue, competition with [3H]RX821002 1 nM
Description: as §1
[^3H]RX821002 binding assays. […] Incubations were terminated by diluting the samples with 5 ml of ice-cold Tris incubation buffer (4° C.). Membrane bound [^3H]RX821002 was separated by vacuum filtration through Whatman GF/C glass fibre filters. Then, the filters were rinsed twice with 5 ml of incubation buffer and transferred to minivials containing 3 ml of OptiPhase “HiSafe” II cocktail and counted for radioactivity by liquid scintillation spectrometry. Specific binding was determined and plotted as a function of the compound concentration. Non-specific binding was determined in the presence of adrenaline (10^−5 M).
Analysis of binding data. Analysis of competition experiments to obtain the inhibition constant (Ki) were performed by nonlinear regression using the GraphPad Prism program. All experiments were analysed assuming a one-site model of radioligand binding. Ki values were normalized to pKi values.

[5] = system: extracellular NA levels in the PFC; assay: In vivo microdialysis in the PFC, extracellular NA; design: species or system male Sprague Dawley rats; details: for Emax of increase in extracellular NA levels: local administration by reverse dialysis 1-100 μM in PFC, percentage of basal values
From the text: Intracerebral microdialysis is a neurochemical technique that has been applied extensively in pharmacological studies aimed at investigating the effect of different drugs on brain neurotransmission. This technique allows one to collect a representative concentration of different neurotransmitters of the area where the probe is implanted while the animals are awake and freely moving.^21
Most antidepressant drugs are able to increase NA extracellular concentrations in different brain areas as the PFC, an area implicated in depression disease. Considering that α2-ARs exert a tonic inhibitory action on NA release from the noradrenergic terminals we assessed the ability of these two new compounds to increase NA extracellular concentration in this area. First, we tested the drugs when administered locally in order to confirm their antagonistic activity over α2-ARs in vivo.
A second step was to study the effect of these compounds increasing NA extracellular concentrations when administered systemically.
In Vivo Microdialysis assays. The experiments were carried out in male Sprague Dawley rats weighing between 250 g and 300 g. At the beginning of the experiments, animals were anaesthetized with chloral hydrate (400 mg/kg i.p.) and a microdialysis probe was implanted by stereotaxic surgery into prefrontal cortex (PFC) brain area. The coordinates selected for the PFC were as follows: AP (anterior to bregma) +2.8 mm, L (lateral from the mid-sagittal suture) +1 mm, DV (ventral from the dura surface) −5 mm.^22 After 24 hours for animal recovery, perfusion fluid (artificial cerebrospinal fluid) is pumped through the probe at a flow rate of 1 μl/min. In the semipermeable membrane, that is the critical side of the probe and is placed on the selected area, molecules flow into and out the cannulae by diffusion. Therefore, microdialysis technique allows local administration of substrates dissolved in the perfusion fluids.
When drugs were locally administered, they were dissolved in a CSF and applied during 70 min via dialysis probe implanted in the PFC in increasing concentrations of 1, 10 and 100 μM. The compounds systemically administered were dissolved in saline and injected intraperitoneally.
Samples, collected with the microdialysis procedure (every 35 min), were analyzed by HPLC with electrochemical detection. NA concentrations were monitorizated by an amperometric detector (Hewlett-Packard model 1049A) at an oxidizing potential of +650 mV. The movil phase (12 mM citric acid, 1 mM EDTA, 0.7 mM octylsodio sulfate, pH 5 and 10% methanol) was filtered, degassed (Hewlett-Packard model 1100 degasser) and delivered at a flow rate of 0.2 ml/min by a Hewlett-Packard model 1100 pump. Stationary phase was a column of 150×2.1 mm (Thermo Electron Corporation, U.S.A.). Samples (injection volume 37 μl) were injected and NA analized in a run time of 10 min. Solution of standard noradrenaline was injected every working day to create a new calibration table.
The mean values of the first three samples before substrate administration were considered as 100% basal value. All measures of extracellular NA concentrations are expressed as percentage of the baseline value±s.e.mean. One way analysis of variance (ANOVA) for control group or two way ANOVA between control and each treated group was assessed for statistical analysis. After the experiments, rats were sacrificed with an overdose of chloral hydrate and the brains were dissected to check the correct implantation of the probe.

mice = assay: Tail suspension test; format: in vivo; details: compared with saline control, FIG. 4
From the text: The tail suspension test as illustrated in FIG. 4 has become one of the most widely used models for assessing antidepressant-like activity in mice. The test is based on the fact that animals subjected to the short-term, inescapable stress of being suspended by their tail, will develop an immobile posture. Antidepressant medications encourage the animal to struggle and promote the occurrence of escape-related behaviour.

c1cc2c(cc1NC1=NCCN1)CCC2 [Compound 9b, 5-(2-imidazolidinylimino)indan]
agonistic or antagonistic properties in [35S]GTPγS experiments (α2-ARs [1]): agonistic properties
stimulation of [35S]GTPγS binding by the compound on its own (α2-ARs [1]): stimulated binding
Emax (α2-ARs [1]; read-out: Emax (%), percentage efficacy relative to UK14304): 98%
activity at cloned human α2-AR receptor [2]: agonist
affinity towards the α2-ARs compared with references (α2-ARs [3]): within the range of those of Idazoxan and/or Clonidine

COC1(C2=NCCN2)COc2ccccc2O1 (stereo not drawn) [RX821002, 2-methoxy-idazoxan, reference compound]
affinity for the α2-ARs expressed as pKi (α2-ARs [4]): 9.04
Emax of increase in extracellular NA levels [5]: 287±49%

N=C(N)Nc1ccc2c(c1)CCCC2 [Compound 17b, N-(5,6,7,8-tetrahydro-naphthalen-2-yl)-guanidine]
agonistic or antagonistic properties in [35S]GTPγS experiments (α2-ARs [1]): antagonistic properties
stimulation of [35S]GTPγS binding by the compound on its own (α2-ARs [1]): did not stimulate binding
ability to cross the blood brain barrier (BBB) ([5]; deduced from NA increase after systemic administration): able to cross the blood brain barrier
Emax of increase in extracellular NA levels [5]: 326±113%
α2-AR antagonist properties in vivo ([5]; local and systemic administration, rats): α2-AR antagonist properties in vivo
increase of NA extracellular concentration, maximal effect ([5]; systemic (intraperitoneal) administration, evaluated in PFC): 373±73%
affinity towards the α2-ARs compared with references (α2-ARs [3]): within the range of those of Idazoxan and/or Clonidine
immobility period (mice): slightly shorter immobility period than the saline control
